Laboratory results as given in patent US7183267B2, “β-lactamase inhibitors and methods of use thereof” (priority 2003, dated 2007).
≈ marks a conversion by molar mass, not a printed value.

Legend:
[1] = test system: methicillin resistant S. aureus from Stanford University Hospital (MRSA-SU); assay: MIC assay, broth microdilution, MRSA-SU; assay type: cell-based; conditions: for MIC: Staphylococcus aureus, MRSA, 24 h
From the text: (2) methicillin resistant S. aureus from Stanford University Hospital Clinical Microbiology/Virology Laboratory (MRSA-SU). […] Such Staphylococci are also resistant to all penicillins, and all cephalosporins, in addition to all β-lactamase inhibitor combinations (including ampicillin/sulbactarn, amoxicillin/clavulanic acid, piperacillin/tazobactam), imipenem, and meropenem; and
(§1) The strains were processed according to procedures recommended by ATCC, or procedures that are routinely used. Single colonies of each organism were picked for purification to generate pure working cultures. Prior to each experiment each strain was subcultured on a fresh Mueller-Hinton agar plate (MHA).
(§2) Inocula for the MIC assays were prepared by transferring a tiny portion of one colony from a MHA plate to 2 ml of Mueller-Hinton broth (MHB) such that the estimated cell density was about 10^7 colony forming unit (CFU)/ml. This cell suspension was then further diluted 10-fold (to 10^6 CFU/ml) by transferring the 2 ml cell suspension to 18 ml of MHB. Addition of 50 μl of this dilute cell suspension to 50 μl of growth medium yielded the desired cell density, namely about 5×10^4 CFU/well, or 5×10^5 CFU/ml.
(§3) The MIC value of oxacillin was determined using the broth microdilution procedure recommended by the National Committee of Clinical Laboratory Standards (NCCLS, 2000).
(§4) The MIC experiments were performed in duplicate in 96-well microtiter plates using MHB. A stock solution of 2.6 mg/0.5 ml was prepared in dimethylsulfoxide (DMSO). A total of 8 two-fold serial dilutions were made with DMSO. Initial oxacillin doses used were (μg/ml): 64, 32, 16, 8, 4, 2, 1, and 0.5. Doses were adjusted in the confirmatory experiment, if needed, in order to establish an actual MIC value.
(§5) To each well of a 96 well microtiter plate was added 47.5 μl of MHB. A volume of 2.5 μl of each dilution of oxacillin was then transferred to appropriate wells containing the medium. All wells, except the sterility control wells, were then inoculated with 50 μl of a diluted cell suspension to give a final volume of 100 μl and a final cell density of 5×10^4 CFU/well. The volume in the sterility control wells was adjusted to 100 μl with MHB. A sterile pipette tip was used to mix the contents of each well (one tip was used going from the low to the high concentration in the same column). The microtiter plates were covered with the lids and were placed in large Stratagene Big Blue plates (Cat. # 400041). Four large kimwipes moistened with tap water were placed near the edges of the Stratagene plates to prevent evaporation of the medium. The microtiter plates were incubated for at least 24 hours at 35° C. The plates were then evaluated for growth in each well. Controls included: medium sterility and negative control (medium and bacteria only).
(§6) The procedure used to determine the antimicrobial activity of the compounds of the present invention was identical to the broth microdilution procedure described above with the exception of the preparation of the stock solutions. Stock solution at concentration of 40.96 mg/0.5 ml was prepared in DMSO for each of the compounds. A total of 8 two-fold dilutions were then made in DMSO. A volume of 2.5 μl of each dilution was delivered to appropriate wells. The initial doses used were (μg/ml): 512, 256, 128, 64, 32, 16, 8, and 4.
(§7) A numerical code was used to evaluate the extent of growth as indicated below. • 0: absence of growth • 1: barely visible (faint) growth • 2: fair growth but less than the negative solvent control • 3: growth is equivalent to the negative solvent control.
(§8) The lowest dose at which no visible growth is observed was determined to be the MIC value.
(§9) MIC assays were performed with oxacillin and the four compounds. Each of the compounds was tested at the following 8 doses (μg/ml): 512, 256, 128, 64, 32, 16, 8, and 4. Oxacillin was tested at the following 8 doses (μg/ml): 64, 32, 16, 8, 4, 2, 1, and 0.5.

[2] = test system: methicillin resistant S. aureus ATCC 33591 (MRSA-ATCC); assay: MIC assay, broth microdilution, MRSA-ATCC; assay type: cell-based; conditions: for MIC: Staphylococcus aureus, 24 h
Method: (1) methicillin resistant S. aureus ATCC 33591 (MRSA-ATCC). This strain was obtained from American Type Culture Collection (ATCC), Manassas, Md.;
as §1, §2, §3, §4, §5, §6, §7, §8, §9

[3] = test system: methicillin sensitive S. aureus ATCC 25923 (MSSA); assay: MIC assay, broth microdilution, MSSA; assay type: cell-based; conditions: for MIC: Staphylococcus aureus, 24 h
Method: (3) methicillin sensitive S. aureus ATCC 25923 (MSSA). This strain was obtained from ATCC and was used as a control.
as §1, §2, §3, §4, §5, §6, §7, §8, §9

TEM-1 β-lactamase [4] = molecular target: T1, TEM-1 β-lactamase (Escherichia coli, UniProt P62593); assay: TEM-1 β-lactamase inhibition assay (nitrocefin hydrolysis, 486 nm); assay type: biochemical
Outline: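 TEM-1 activity followed by nitrocefin hydrolysis at 486 nm, 25 °C, 50 mM sodium phosphate pH 7.0, 5% DMSO; inhibitor preincubated with enzyme 10 min before substrate. Ki obtained from rates at increasing inhibitor concentrations fitted to competitive-inhibition equations; penicillin G also used as substrate for KM and kcat.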

β-lactamase mutant E104K = β-lactamase mutant E104K (Escherichia coli, UniProt P62593, E102K); assay type: biochemical; conditions: number higher than 1 reflects a loss of potency against mutant
Method: (§10) The inhibition of TEM-1 β-lactamase was determined spectrophotometrically. B-lactamase activity was followed by measuring the hydrolysis of nitrocefin, [3-(2,4-dinitrostyryl)-(6R, 7R)-7-(2-thienylacetamido)-ceph-3-em-4-carboxylic acid, E-isomer], (Calbiochem, San Diego, Calif., USA) at 486 nm. Inhibition assays were performed at 25° C. in 50 mM sodium phosphate, 5% DMSO, pH 7.0. […] Inhibitor was added to the enzyme and incubated for ten minutes before the addition of substrate. Inhibition constants (Ki) for the inhibitors are obtained at the desired temperature and solvent conditions by measuring the rate of substrate hydrolysis at increasing amounts of inhibitors.
(§11) Three of the most important mutations are M69I, R244S and E104K.

β-lactamase mutant R244S = β-lactamase mutant R244S (Escherichia coli, UniProt P62593, R241S); assay type: biochemical; conditions: number higher than 1 reflects a loss of potency against mutant
Method: as §10, §11

β-lactamase mutant M69I = β-lactamase mutant M69I (Escherichia coli, UniProt P62593, M67I); assay type: biochemical; conditions: number higher than 1 reflects a loss of potency against mutant
Method: as §10, §11

β-lactamase M69I = β-lactamase M69I (Escherichia coli, UniProt P62593, M67I); assay: Isothermal titration calorimetry, binding enthalpy, M69I mutant
Method: (§12) The binding of the compounds of the present invention to β-lactamase was also measured by isothermal titration calorimetry.
(§13) These experiments, in combination with the inhibition assays, indicate that the compounds identified in this disclosure bind to the wild type as well as drug resistant beta lactamases with favorable binding enthalpies. This is a very important characteristic from the point of view of further optimization since it facilitates the achievement of extremely high affinities and low susceptibilities to drug resistant mutations and naturally occurring polymorphisms.
(§14) Isothermal titration calorimetry was performed on a high-precision VP-ITC titration calorimeter (Microcal Inc., Northampton, Mass.). β-Lactamase solutions were titrated with inhibitors in 50 mM sodium phosphate, 2% DMSO, pH 7.0, with β-lactamase concentrations ranging from 15 to 25 μM and inhibitor concentrations ranging from 300 to 1000 μM. The heat evolved from each injection was obtained by integrating the calorimetric signal. Heat of binding was obtained as the difference between the heat of reaction and the heat of inhibitor dilution. Data were analyzed using Origin 7.0 (OriginLab Corporation, Northampton, Mass.).

β-lactamase R244S = β-lactamase R244S (Escherichia coli, UniProt P62593, R241S); assay: Isothermal titration calorimetry, binding enthalpy, R244S mutant
Method: as §12, §13, §14

β-lactamase E104K = β-lactamase E104K (Escherichia coli, UniProt P62593, E102K); assay: Isothermal titration calorimetry, binding enthalpy, E104K mutant
Method: as §12, §13, §14

β-lactamase wt = β-lactamase wt (Escherichia coli, UniProt P62593); assay: Isothermal titration calorimetry, binding enthalpy, wild type
Method: as §12, §13, §14

TEM-1 β-lactamase [5] = molecular target: T1, TEM-1 β-lactamase; assay: Isothermal titration calorimetry, binding to TEM-1 β-lactamase (Example 17); conditions: ITC
Method: as §14
These methods can also be used to express and assay recombinant TEM-1 variant of β-lactamase.
Also shown are the results obtained for β-lactamase variant TEM-1.

[6] = Ki, 25° C., 50 mM sodium phosphate, 5% DMSO, pH 7.0, enzyme 5 nM, nitrocefin 167 μM
[7] = Ki from Lineweaver-Burke Analysis, values in parenthesis, Lineweaver-Burke analysis

O=C(O)c1cccc(B(O)O)c1 [Compound F1203]
bacteriotoxicity at high dose ([1]; 512 μl/ml, MRSA-SU): not bacteriotoxic | MIC [1]: > 512 µg/mL | bacteriotoxicity at high dose ([2]; 512 μl/ml, MRSA-ATCC): not bacteriotoxic | MIC [2]: > 512 µg/mL | bacteriotoxicity at high dose ([3]; 512 μl/ml, MSSA): not bacteriotoxic | MIC [3]: > 512 µg/mL

O=C(Oc1ccc([N+](=O)[O-])cc1)c1cc(B(O)O)cc([N+](=O)[O-])c1 [Compound (1a), 3-(4-Nitrophenoxycarbonyl)-5-nitrophenylboronic acid]
Ki (TEM-1 β-lactamase [4]; [6]): 80 ± 9 µM | melting point: 205 to 207 °C | Loss of potency: ratio of the inhibitory constant between mutant and wild type (Potencywt/Potencymutant), E104K (β-lactamase mutant E104K): 0.39 | Loss of potency: ratio of the inhibitory constant between mutant and wild type (Potencywt/Potencymutant), R244S (β-lactamase mutant R244S): 0.44 | Loss of potency: ratio of the inhibitory constant between mutant and wild type (Potencywt/Potencymutant), M69I (β-lactamase mutant M69I): 0.43

COc1ccc(OC(=O)c2cc(B(O)O)cc([N+](=O)[O-])c2)cc1 [Compound (1d), 3-(4-Methoxyphenoxycarbonyl)-5-nitrophenylboronic acid]
Ki (TEM-1 β-lactamase [4]; [6]): 42 ± 7 µM | melting point: 67 °C | Loss of potency: ratio of the inhibitory constant between mutant and wild type (Potencywt/Potencymutant), E104K (β-lactamase mutant E104K): 0.55 | Loss of potency: ratio of the inhibitory constant between mutant and wild type (Potencywt/Potencymutant), R244S (β-lactamase mutant R244S): 0.62 | Loss of potency: ratio of the inhibitory constant between mutant and wild type (Potencywt/Potencymutant), M69I (β-lactamase mutant M69I): 0.60

N#Cc1ccccc1OC(=O)c1cc(B(O)O)cc([N+](=O)[O-])c1 [Compound (1g), 3-(2-Cyanophenoxycarbonyl)-5-nitrophenylboronic acid]
ΔH M69I (β-lactamase M69I): -2.46 kcal/mol | Ki (TEM-1 β-lactamase [4]; [7]): 1.37 µM | Ki (TEM-1 β-lactamase [4]; [6]): 37 ± 3 µM | ΔH R244S (β-lactamase R244S): -8.2 kcal/mol | Loss of potency: ratio of the inhibitory constant between mutant and wild type (Potencywt/Potencymutant), E104K (β-lactamase mutant E104K): 0.32 | Loss of potency: ratio of the inhibitory constant between mutant and wild type (Potencywt/Potencymutant), R244S (β-lactamase mutant R244S): 0.26 | Loss of potency: ratio of the inhibitory constant between mutant and wild type (Potencywt/Potencymutant), M69I (β-lactamase mutant M69I): 0.40 | ΔH E104K (β-lactamase E104K): -6.397 kcal/mol | ΔH wt (β-lactamase wt): -5.52 kcal/mol

O=C(Oc1ccccc1Cl)c1cc(B(O)O)cc([N+](=O)[O-])c1 [Compound (1j), 3-(2-Chlorophenoxycarbonyl)-5-nitrophenylboronic acid]
ΔH M69I (β-lactamase M69I): -1.693 kcal/mol | Ki (TEM-1 β-lactamase [4]; [7]): 1.31 µM | Ki (TEM-1 β-lactamase [4]; [6]): 28 ± 2 µM | ΔH R244S (β-lactamase R244S): -6.877 kcal/mol | Loss of potency: ratio of the inhibitory constant between mutant and wild type (Potencywt/Potencymutant), E104K (β-lactamase mutant E104K): 0.15 | Loss of potency: ratio of the inhibitory constant between mutant and wild type (Potencywt/Potencymutant), R244S (β-lactamase mutant R244S): 0.37 | Loss of potency: ratio of the inhibitory constant between mutant and wild type (Potencywt/Potencymutant), M69I (β-lactamase mutant M69I): 0.33 | ΔH E104K (β-lactamase E104K): -2.756 kcal/mol | ΔH wt (β-lactamase wt): -2.145 kcal/mol

O=C(Oc1ccccc1[N+](=O)[O-])c1cc(B(O)O)cc([N+](=O)[O-])c1 [Compound F1204]
MIC [1]: 512 µg/mL | MIC [2]: 256 µg/mL (≈ 771 µM) | MIC [3]: 512 µg/mL (≈ 1540 µM)

O=C(Oc1c(Cl)cccc1[N+](=O)[O-])c1cc(B(O)O)cc([N+](=O)[O-])c1 [Compound (1h), 3-(2-Chloro-6-nitrophenoxycarbonyl)-5-nitrophenylboronic acid]
ΔH M69I (β-lactamase M69I): -0.953 kcal/mol | Ki (TEM-1 β-lactamase [4]; [7]): 0.65 µM | Ki (TEM-1 β-lactamase [4]; [6]): 9.5 ± 0.8 µM | Ki (TEM-1 β-lactamase [4]; Ki, TEM-1 β-lactamase): 9.5 µM | ΔH R244S (β-lactamase R244S): -11.931 kcal/mol | ΔG (TEM-1 β-lactamase [5]): -6.614 kcal/mol | ΔH (TEM-1 β-lactamase [5]): -1.14 kcal/mol | −TΔS (TEM-1 β-lactamase [5]): -5.474 kcal/mol | Loss of potency: ratio of the inhibitory constant between mutant and wild type (Potencywt/Potencymutant), E104K (β-lactamase mutant E104K): 0.77 | Loss of potency: ratio of the inhibitory constant between mutant and wild type (Potencywt/Potencymutant), R244S (β-lactamase mutant R244S): 0.86 | Loss of potency: ratio of the inhibitory constant between mutant and wild type (Potencywt/Potencymutant), M69I (β-lactamase mutant M69I): 1.2 | ΔH E104K (β-lactamase E104K): -1.896 kcal/mol | ΔH wt (β-lactamase wt): -1.14 kcal/mol

COC(=O)c1cc(B(O)O)cc([N+](=O)[O-])c1 [Compound F1212]
ΔH M69I (β-lactamase M69I): -3.3 kcal/mol | Ki (TEM-1 β-lactamase [4]; 25° C., 50 mM sodium phosphate, 5% DMSO, pH 7.0, enzyme 5 nM, nitrocefin 167 μM): 95 µM | ΔH R244S (β-lactamase R244S): -8.9 kcal/mol | ΔH E104K (β-lactamase E104K): -4.5 kcal/mol | ΔH wt (β-lactamase wt): -4.7 kcal/mol
